Reference: patent US9056876B2, “Substituted 1H-pyrazolo[3′,4′,4,5]thieno[2,3-b]pyridin-3-amine analogs as positive allosteric modulators of the muscarinic acetylcholine receptor M4” (VANDERBILT UNIVERSITY, priority 2011, dated 2015)

Molecular target: T1, mAChR M4 (UniProt P08173)
T1 construct: hM1 and hM4 cDNAs were purchased from Missouri S&T cDNA Resource
T1 sequence (P08173 1-479): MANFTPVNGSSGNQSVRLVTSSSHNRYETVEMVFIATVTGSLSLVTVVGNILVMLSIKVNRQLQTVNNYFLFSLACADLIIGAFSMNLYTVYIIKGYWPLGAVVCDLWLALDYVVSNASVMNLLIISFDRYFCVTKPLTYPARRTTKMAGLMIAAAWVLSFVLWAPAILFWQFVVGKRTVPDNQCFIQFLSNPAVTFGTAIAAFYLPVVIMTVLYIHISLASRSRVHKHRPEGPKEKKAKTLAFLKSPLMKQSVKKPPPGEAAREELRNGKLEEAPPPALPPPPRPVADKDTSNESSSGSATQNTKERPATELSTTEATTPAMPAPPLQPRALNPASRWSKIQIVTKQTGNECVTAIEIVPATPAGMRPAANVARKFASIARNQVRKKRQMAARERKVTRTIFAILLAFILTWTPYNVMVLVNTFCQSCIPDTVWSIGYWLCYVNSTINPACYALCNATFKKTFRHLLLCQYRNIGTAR
Assay: mAChR M4 cell-based functional assay (calcium mobilization, Fluo-4, FDSS)
Details: for pEC50: positive allosteric modulator activity, EC20 acetylcholine response; for pEC50 / EC50: CHO-K1 cells; for EC50: positive allosteric modulator activity: concentration-dependent increase in the EC20 acetylcholine response, >10 μM estimated for low potency (no plateau); for Emax (%)*: % ACh maximum at 30 μM
In short: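 Compound responses (11-point, 1:3 series) were followed as calcium fluorescence ratio on FDSS in Gqi5-coupled M4 CHO-K1 cells (human or rat) loaded with Fluo-4. Acetylcholine followed at EC20 (144 s) then EC80 (230 s). EC50/Emax from four-parameter logistic fits of direct, EC20-potentiating or EC80-inhibiting effects.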

SMILES | pEC50 | EC50 [µM] | Emax (%)* [%]
Cc1cc(C)c2c(n1)sc1c(NCc3ccccc3F)n[nH]c12 [Compound 9, N-(2-fluorobenzyl)-6,8-dimethyl-1H-pyrazolo[3′,4′:4,5]thieno[2,3-b]pyridin-3-amine] | 5.98 | 1.05 | 43
Cc1nc2sc3c(NCCC(C)C)nn(C)c3c2c(C)c1Cl [Compound 24, 7-chloro-N-isopentyl-1,6,8-trimethyl-1H-pyrazolo[3′,4′:4,5]thieno[2,3-b]pyridin-3-amine] | <5.00 | > 10 | 61
Cc1cc(C)c2c(n1)sc1c(NCc3ccc(F)cc3)n[nH]c12 [Compound 4, N-(4-fluorobenzyl)-6,8-dimethyl-1H-pyrazolo[3′,4′:4,5]thieno[2,3-b]pyridin-3-amine] | 5.99 | 1.03 | 54
Cc1nc2sc3c(NCc4ccc(F)cc4)nn(C)c3c2c(C)c1Cl [Compound 22, 7-chloro-N-(4-fluorobenzyl)-1,6,8-trimethyl-1H-pyrazolo[3′,4′:4,5]thieno[2,3-b]pyridin-3-amine] | <5.00 | > 10 | 57
Cc1nc2sc3c(NCc4ccccc4)n[nH]c3c2c(C)c1Cl [Compound 16, N-benzyl-7-chloro-6,8-dimethyl-1H-pyrazolo[3′,4′:4,5]thieno[2,3-b]pyridin-3-amine] | <5.00 | > 10 | 32
Cc1cc(C)c2c(n1)sc1c(NCc3cccs3)n[nH]c12 [Compound 36, 6,8-dimethyl-N-(thiophen-2-ylmethyl)-1H-pyrazolo[3′,4′:4,5]thieno[2,3-b]pyridin-3-amine] | 6.20 | 0.63 | 78
COc1ccc(CNc2nn(C)c3c2sc2nc(C)ccc23)cc1 [Compound 55, N-(4-methoxybenzyl)-1,6-dimethyl-1H-pyrazolo[3′,4′:4,5]thieno[2,3-b]pyridin-3-amine] | 6.02 | 0.96 | 63
Cc1cc(C)c2c(n1)sc1c(NC3CCOCC3)n[nH]c12 [Compound 13, 6,8-dimethyl-N-(tetrahydro-2H-pyran-4-yl)-1H-pyrazolo[3′,4′:4,5]thieno[2,3-b]pyridin-3-amine] | 5.14 | 7.32 | 37
COc1ccc(CNc2nn(C)c3c2sc2nccc(C)c23)cc1 [Compound 63, N-(4-methoxybenzyl)-1,8-dimethyl-1H-pyrazolo[3′,4′:4,5]thieno[2,3-b]pyridin-3-amine] | 5.77 | 1.7 | 80
COc1ccc(CNc2nn(C)c3c2sc2nc(C)cc(C)c23)c(OC)c1 [Compound 61, N-(2,4-dimethoxybenzyl)-1,6,8-trimethyl-1H-pyrazolo[3′,4′:4,5]thieno[2,3-b]pyridin-3-amine] | 6.35 | 0.45 | 33
Cc1cc(C)c2c(n1)sc1c(NCCC(C)C)nn(C)c12 [Compound 32, N-isopentyl-1,6,8-trimethyl-1H-pyrazolo[3′,4′:4,5]thieno[2,3-b]pyridin-3-amine] | 6.72 | 0.19 | 81
Cc1ccc2c(n1)sc1c(NCc3ccccc3)n[nH]c12 [Compound 50, N-benzyl-6-methyl-1H-pyrazolo[3′,4′:4,5]thieno[2,3-b]pyridin-3-amine] | 5.60 | 2.5 | 57
Cc1cc(C)c2c(n1)sc1c(NCCC(C)C)n[nH]c12 [Compound 3, N-isopentyl-6,8-dimethyl-1H-pyrazolo[3′,4′:4,5]thieno[2,3-b]pyridin-3-amine] | 5.91 | 1.24 | 46
Cc1cc(C)c2c(n1)sc1c(N)n[nH]c12 [Compound 1, 6,8-dimethyl-1H-pyrazolo[3′,4′:4,5]thieno[2,3-b]pyridin-3-amine] | <5.00 | > 10 | 27
Cc1ccc2c(n1)sc1c(NCC3CC3)nn(C)c12 [Compound 51, N-(cyclopropylmethyl)-1,6-dimethyl-1H-pyrazolo[3′,4′:4,5]thieno[2,3-b]pyridin-3-amine] | 5.89 | 1.3 | 73

Next, values leading:

pEC50 | EC50 [µM] | Emax (%)* [%] | SMILES
<5.00 | > 10 | – | Cc1cc(C)c2c(n1)sc1c(NC(=O)c3ccc(F)cc3)n[nH]c12 [Compound 128, N-(6,8-dimethyl-1H-pyrazolo[3′,4′:4,5]thieno[2,3-b]pyridin-3-yl)-4-fluorobenzamide]
<5.00 | > 10 | – | Cc1ccnc2sc3c(NC(=O)c4ccccc4)nn(C)c3c12 [Compound 159, N-(1,8-dimethyl-1H-pyrazolo[3′,4′:4,5]thieno[2,3-b]pyridin-3-yl)benzamide]
7.21 | 0.062 | 71 | Cc1cc(C)c2c(n1)sc1c(NCc3ccsc3)nn(C)c12 [Compound 80, 1,6,8-trimethyl-N-(thiophen-3-ylmethyl)-1H-pyrazolo[3′,4′:4,5]thieno[2,3-b]pyridin-3-amine]
7.08 | 0.084 | 72 | Cc1cc(C)c2c(n1)sc1c(NCc3scnc3C)nn(CCO)c12 [Compound 110, 2-(6,8-dimethyl-3-(((4-methylthiazol-5-yl)methyl)amino)-1H-pyrazolo[3′,4′:4,5]thieno[2,3-b]pyridin-1-yl)ethanol]
<5.00 | > 10 | – | CCCCC(=O)Nc1n[nH]c2c1sc1nc(C)cc(C)c12 [Compound 129, N-(6,8-dimethyl-1H-pyrazolo[3′,4′:4,5]thieno[2,3-b]pyridin-3-yl)pentanamide]
<5.00 | > 10 | – | Cc1cc(C)c2c(n1)sc1c(NC3CCN(C)CC3)n[nH]c12 [Compound 134, 6,8-dimethyl-N-(1-methylpiperidin-4-yl)-1H-pyrazolo[3′,4′:4,5]thieno[2,3-b]pyridin-3-amine]
<5.00 | > 10 | 62 | Cc1ccc2c(n1)sc1c(NC(C)C)nn(C)c12 [Compound 70, N-isopropyl-1,6-dimethyl-1H-pyrazolo[3′,4′:4,5]thieno[2,3-b]pyridin-3-amine]
5.96 | 1.1 | 69 | Cc1cc(C)c2c(n1)sc1c(NC3CNC3)nn(C)c12 [Compound 102, N-(azetidin-3-yl)-1,6,8-trimethyl-1H-pyrazolo[3′,4′:4,5]thieno[2,3-b]pyridin-3-amine]
<5.00 | > 10 | – | Cc1cc(C)c2c(n1)sc1c(NC3CCCNC3)n[nH]c12 (stereo not drawn) [Compound 136, 6,8-dimethyl-N-(piperidin-3-yl)-1H-pyrazolo[3′,4′:4,5]thieno[2,3-b]pyridin-3-amine]
7.03 | 0.093 | 66 | Cc1cc(C)c2c(n1)sc1c(NCc3sc(C)nc3C)nn(C)c12 [Compound 99, N-((2,4-dimethylthiazol-5-yl)methyl)-1,6,8-trimethyl-1H-pyrazolo[3′,4′:4,5]thieno[2,3-b]pyridin-3-amine]
6.70 | 0.2 | 65 | Cc1cc(C)c2c(n1)sc1c(NC3CCCC3)nn(CCO)c12 [Compound 107, 2-(3-(cyclopentylamino)-6,8-dimethyl-1H-pyrazolo[3′,4′:4,5]thieno[2,3-b]pyridin-1-yl)ethanol]
6.09 | 0.82 | 69 | Cc1cc(C)c2c(n1)sc1c(NC3CCOC3)nn(CCO)c12 (stereo not drawn) [Compound 108, 2-(6,8-dimethyl-3-((tetrahydrofuran-3-yl)amino)-1H-pyrazolo[3′,4′:4,5]thieno[2,3-b]pyridin-1-yl)ethanol]
5.96 | 1.1 | 40 | Cc1cc(C)c2c(n1)sc1c(NCC3CCCN3)nn(C)c12 (stereo not drawn) [Compound 86, 1,6,8-trimethyl-N-(pyrrolidin-2-ylmethyl)-1H-pyrazolo[3′,4′:4,5]thieno[2,3-b]pyridin-3-amine]
6.60 | 0.25 | 52 | Cc1cc(C)c2c(n1)sc1c(NCc3ccc(C#N)c(F)c3)nn(C)c12 [Compound 90, 2-fluoro-4-(((1,6,8-trimethyl-1H-pyrazolo[3′,4′:4,5]thieno[2,3-b]pyridin-3-yl)amino)methyl)benzonitrile]
<5.00 | > 10 | – | Cc1nc2sc3c(Nc4ccncc4)nn(C)c3c2c(C)c1Cl [Compound 148, 7-chloro-1,6,8-trimethyl-N-(pyridin-4-yl)-1H-pyrazolo[3′,4′:4,5]thieno[2,3-b]pyridin-3-amine]
6.66 | 0.22 | 57 | Cc1cc(C)c2c(n1)sc1c(NCc3cc(C#N)ccc3F)nn(C)c12 [Compound 91, 4-fluoro-3-(((1,6,8-trimethyl-1H-pyrazolo[3′,4′:4,5]thieno[2,3-b]pyridin-3-yl)amino)methyl)benzonitrile]
